The source of these data is patent publication US5597848A, “Benzenesulfonamide derivatives and use thereof” (Hokuriku Seiyaku Co., Ltd., priority 1992, dated 1997).

The structures appear in SMILES notation. A value given as a limit tells only on which side of the number the result lay.

The target in test [1] is T1, thromboxane A2 synthetase (Homo sapiens, UniProt P24557).
T1 construct: human platelet membrane fraction (RAN) as a source of thromboxane A2 synthetase; purchased RAN; host or cells: human platelet membrane fraction
T1 sequence (P24557 1-533): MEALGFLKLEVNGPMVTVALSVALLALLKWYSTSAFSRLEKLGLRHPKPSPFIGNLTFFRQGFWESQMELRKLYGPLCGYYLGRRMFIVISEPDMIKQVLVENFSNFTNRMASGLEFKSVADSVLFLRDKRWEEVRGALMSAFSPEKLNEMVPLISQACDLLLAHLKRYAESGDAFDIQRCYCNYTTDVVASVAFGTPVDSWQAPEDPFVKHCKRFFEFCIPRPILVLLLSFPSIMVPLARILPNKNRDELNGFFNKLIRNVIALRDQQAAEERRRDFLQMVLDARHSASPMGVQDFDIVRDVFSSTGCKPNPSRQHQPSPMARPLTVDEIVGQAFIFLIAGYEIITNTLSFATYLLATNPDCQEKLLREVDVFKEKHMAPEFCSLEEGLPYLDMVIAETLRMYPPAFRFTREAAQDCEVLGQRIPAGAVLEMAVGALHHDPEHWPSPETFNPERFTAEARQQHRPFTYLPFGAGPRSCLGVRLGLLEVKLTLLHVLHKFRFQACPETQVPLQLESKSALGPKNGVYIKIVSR
Description: Inhibitory effect on thromboxane A2 synthetase (human platelet membrane fraction, thromboxane B2 RIA). The class given is biochemical. Conditions: 3 min at 25° C., read-out: IC50 (50% inhibition of the enzyme activity). On the procedure:
100 μg/ml (285 μl) of the commercially available human platelet membrane fraction (RAN) as a source of thromboxane A2 synthetase, dimethyl sulfoxide solution of test compounds (10 μl) and 100 μg/ml (5 μl) of prostaglandin H2 (Cayman) were mixed and reaction was carried out for 3 min at 25° C. Amount of thromboxane B2, a stable metabolite derived from thromboxane A2 produced, was measured by RIA method (TXB2 quantification kit; NEN).

A further test deals with T2, thromboxane A2 receptor (Cavia porcellus, UniProt A0A286Y4I8).
T2 construct: platelet-rich plasma; endogenous in cells; host or cells: guinea-pig platelets in platelet-rich plasma
T2 sequence (A0A286Y4I8 1-347): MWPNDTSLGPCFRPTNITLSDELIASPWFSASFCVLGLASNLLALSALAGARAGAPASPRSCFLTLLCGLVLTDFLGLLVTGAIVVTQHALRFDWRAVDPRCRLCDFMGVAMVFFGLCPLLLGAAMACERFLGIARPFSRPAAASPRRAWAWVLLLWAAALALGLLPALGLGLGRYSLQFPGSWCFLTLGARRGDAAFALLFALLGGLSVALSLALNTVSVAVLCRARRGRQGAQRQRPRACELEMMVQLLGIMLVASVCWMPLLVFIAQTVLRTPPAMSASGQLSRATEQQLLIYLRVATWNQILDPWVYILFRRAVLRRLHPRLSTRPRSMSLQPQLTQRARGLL
Description: Thromboxane A2 antagonistic effect: inhibition of U-46619-induced platelet aggregation in guinea-pig platelet-rich plasma. The class given is cell-based, guinea-pigs. Conditions: guinea-pig PRP, U-46619 2 μg/ml, 2 min at 37° C.; read-out: IC50 (50% inhibition against platelet aggregation). The protocol: Blood was collected from the abdominal aorta of guinea-pigs (about 400 g wt.) into 1/10 volume of 3.8% sodium citrate, and then platelet-rich plasma (PRP: 6×10^5 cells/μl) was obtained by centrifugation. A cuvette was filled with PRP 190 μl and set in an aggregometer (Hema Tracer I; Niko Bioscience). Incubation was carried out for 2 min. at 37° C. after the addition of 1 μl of dimethyl sulfoxide solution of test compounds. To the PRP, 10 μl of U-46619 (Cayman), a thromboxane A2 /prostaglandin H2 receptor agonist and potent platelet aggregation inducer, was added at the final concentration of 2 μg/ml, and platelet aggregation was measured by an aggregometer.

The test system of test [2] is broncho-constriction induced by U-46619. As to the kind of experiment: Inhibitory effect on broncho-constriction induced by U-46619 (Konzett-Roessler method, oral). The class given is in vivo, Male hartley guinea-pigs. To be noted: 0.3 mg/kg orally, 2 hrs before U-46619 4 μg/kg. On the procedure:
Airway resistance was evaluated according to the method of Konzett-Roessler[Naunyn-Schmiedberg's Arch. Exp. Path. Pharmak., Vol. 195, 71 (1940)]. Male hartley guinea-pigs (about 400 g wt.) were anesthetized with urethane (1.5 g/kg, i.p.) and ventilated by an artificial respirator (Model 683; Harvard). At that time, overflowed air volume above the pressure of about 12 cm H2 O was measured by using a sensor (Model 7020; Ugo basile) and the value was used as an index of broncho-constriction. 0.3 mg/kg (5 ml/kg) of test compounds suspended in 5% gum Arabic was administered orally to Guinea-pigs fasted beforehand for 24 hr. After 2 hrs, U-46619 (4 μg/kg; Cayman) was administered through the cervical vein, and then maximal response was measured. Inhibitory rates compared to the reference group were calculated based on the response rate normalized by the complete closure as 100%.

Test [3] concerns broncho-constriction induced by leukotriene D4. Description: Inhibitory effect on broncho-constriction induced by leukotriene D4 (Konzett-Roessler method, oral). The class given is in vivo, male Hartley guinea-pig. Conditions: for inhibition in vivo at 30 mg/kg: Cavia porcellus, po, 30 mg/kg orally, leukotriene D4 1 μg/kg after 2 hr, indomethacin and propranolol pretreatment, read-out: Inhibition rate. On the procedure:
Airway resistance was evaluated according to the method of Konzett-Roessler[Naunyn-Schmiedberg's Arch. Exp. Path. Pharmak., Vol. 195, 71 (1940)]. After male Hartley guinea-pig fasted beforehand for 24 hr were anesthetized with urethane, overflowed air volume was measured under artificial ventilation as an index of broncho-constriction. 30 mg/kg (5 ml/kg) of test compounds suspended in 5% gum Arabic were administered orally to […]. Leukotriene D4 (1 μg/kg; ULTRA FINE) was administered through the cervical vein after 2 hr, and then values were measured at 2 min after the time when responses became maximum. Inhibitory rates compared to the control group were calculated based on the response rate normalized by the overflowed volume at complete closure as 100% broncho-constriction state. Indomethacin (2 mg/kg, i.v.) and propranolol (1 mg/kg, i.v.) were administered at 10 min and 5 min before the administration of leukotriene D4, respectively.

Another test addresses T3, leukotriene D4 (Cavia porcellus, UniProt Q2NNR5).
T3 construct: tracheas were isolated from male Hartley guinea-pigs; from tissue; host or cells: isolated trachea of male Hartley guinea-pigs
T3 sequence (Q2NNR5 1-340): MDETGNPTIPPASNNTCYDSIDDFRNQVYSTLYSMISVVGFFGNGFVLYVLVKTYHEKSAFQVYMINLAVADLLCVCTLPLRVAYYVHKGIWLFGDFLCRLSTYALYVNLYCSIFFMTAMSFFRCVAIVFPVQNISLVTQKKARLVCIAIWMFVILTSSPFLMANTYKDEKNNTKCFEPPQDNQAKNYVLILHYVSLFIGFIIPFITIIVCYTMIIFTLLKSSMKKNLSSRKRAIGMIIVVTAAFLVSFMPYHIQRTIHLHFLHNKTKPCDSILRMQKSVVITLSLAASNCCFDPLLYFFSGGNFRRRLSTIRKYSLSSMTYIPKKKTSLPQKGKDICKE
Description: Leukotriene D4 antagonistic effect in isolated trachea (Schild method). The arrangement: species or system male Hartley guinea-pigs. The protocol:
According to an ordinary method, tracheas were isolated from male Hartley guinea-pigs, and ring specimens of approximately […] length were prepared. These specimens were suspended isotonically in organ baths that contained Krebs solution at 37° C. under a resting tension of 0.5 g. After repeated contractions with acetylcholine (1×10^-6 M; Ovisot for injection, Daiichi Seiyaku), and the first concentration-response curves was obtained by cummulative applications of leukotriene D4 (ULTRA FINE) into the organ baths. After treatments with test compounds at adequate concentrations for 30 min, the second concentration-response curves were obtained in the same manner as first applications. pKB values were calculated using these two concentration-response curves according to the method of Schild [Pharmacological Review, Vol. 9, 242 (1957)]. Indomethacin (3×10^-6 M; Sigma) was added beforehand to the organ bath to eliminate possible affections by thromboxane A2 and prostaglandin produced by stimulus of leukotriene D4 [Japan J. Pharmacol., Vol. 60, 227 (1992)].

[4] abbreviates: isolated trachea, 30 min treatment, indomethacin 3×10^-6 M, Krebs 37° C.

Take `O=C(O)CCCc1ccc(C(Cc2ccccc2)NS(=O)(=O)c2ccc(Cl)cc2)cc1` (centres unmarked) [Example 62, 4-[4-[1-(4-Chlorophenylsulfonylamino)-2-phenylethyl]phenyl]butyric Acid]: the IC50 worked out at 4000 nM in test [1] and 50 nM on thromboxane A2 receptor.

As to `CC(NS(=O)(=O)c1ccc(Cl)cc1)c1ccc(CCCC(=O)O)cc1` (centres unmarked) [Example 63, 4-[4-[1-(4-Chlorophenylsulfonylamino)ethyl]phenyl]butyric Acid], in test [1], the IC50 is 2000 nM.

Turning to `CCCCC(NS(=O)(=O)c1ccc(Cl)cc1)c1ccc(CCCC(=O)O)cc1` (centres unmarked) [Example 66, 4-[4-[1-(4-Chlorophenylsulfonylamino)pentyl]phenyl]butyric Acid], the Inhibition rate in test [2] was determined as 85%. Besides, in test [3], the inhibition in vivo at 30 mg/kg worked out at 81%. The same molecule showed a Kb on leukotriene D4 (setting [4]) of 794 nM. In addition, the IC50 at thromboxane A2 receptor was determined as 320 nM.

Consider `CC(C)C(NS(=O)(=O)c1ccc(Cl)cc1)c1ccc(CCCC(=O)O)cc1` (centres unmarked) [Example 69, 4-[4-[1-(4-Chlorophenylsulfonylamino)-2-methylpropyl]phenyl]butyric Acid], for which the figures for the IC50 (in test [1]; at thromboxane A2 receptor) were 2000 nM and 200 nM, respectively.

In the case of `O=C(O)CCCc1ccc(C(NS(=O)(=O)c2ccc(Cl)cc2)C2CCCC2)cc1` (centres unmarked) [Example 73, 4-[4-[(4-Chlorophenylsulfonylamino)cyclopentylmethyl]phenyl]butyric Acid], the IC50 in test [1] is 1600 nM; at thromboxane A2 receptor, 250 nM.

As to `O=C(O)CCCc1ccc(C(NS(=O)(=O)c2ccc(Cl)cc2)C2CCCCC2)cc1` (centres unmarked) [Example 74, 4-[4-[(4-Chlorophenylsulfonylamino)cyclohexylmethyl]phenyl]butyric Acid], the IC50 in test [1] worked out at 3200 nM; at thromboxane A2 receptor it was 320 nM. In addition, the Kb at leukotriene D4 (setting [4]) is 501 nM.

In test [2], `O=C(O)CCCc1ccc(C(Cc2ccc(Cl)cc2)NS(=O)(=O)c2ccc(Cl)cc2)cc1` (centres unmarked) [Example 96, 4-[4-[2-(4-Chlorophenyl)-1-(4-chlorophenylsulfonylamino)ethyl]phenyl]butyric Acid] displayed an Inhibition rate of 89%. In test [3], the inhibition in vivo at 30 mg/kg is 43%. The molecule also had a Kb on leukotriene D4 (setting [4]) of 1000 nM. The IC50 on thromboxane A2 receptor is 630 nM.

Turning to `Cc1ccc(CC(NS(=O)(=O)c2ccc(Cl)cc2)c2ccc(CCCC(=O)O)cc2)cc1` (centres unmarked) [Example 97, 4-[4-[1-(4-Chlorophenylsulfonylamino)-2-(p-tolyl)ethyl]phenyl]butyric Acid], the Inhibition rate in test [2] is 88%. Also, the inhibition in vivo at 30 mg/kg in test [3] is 56%. For the same molecule, the pKB on leukotriene D4 (setting [4]) was 5.9. Further, the IC50 at thromboxane A2 receptor amounted to 320 nM.

In test [2], `O=C(O)CCCc1ccc(C(CCc2ccccc2)NS(=O)(=O)c2ccc(Cl)cc2)cc1` (centres unmarked) [Example 98, 4-[4-[1-(4-Chlorophenylsulfonylamino)-3-phenylpropyl]phenyl]butyric Acid] yielded an Inhibition rate of 84%. Besides, in test [3], the inhibition in vivo at 30 mg/kg came out at 57%. The molecule also had an antagonist equilibrium constant (Kb) at leukotriene D4 (setting [4]) of 398 nM. The IC50 on thromboxane A2 receptor was determined as 320 nM.

Turning to `O=C(O)Cc1ccc(CCNS(=O)(=O)c2ccc(Cl)cc2)cc1` [Reference compound, reference compound], the Inhibition rate in test [2] is given as 18%. Further, the IC50 in test [1] amounted to 40000 nM. For the same molecule, in test [3], the inhibition in vivo at 30 mg/kg was at most 0%. In addition, the “inhibitory effect on broncho-constriction induced by leukotriene D4 (in words)” value in test [3] (guinea pig, in vivo) is recorded as “no inhibitory effect”. Also, at leukotriene D4, the “leukotriene D4 antagonistic effect (in words)” value was “inactive”. The Kb on leukotriene D4 (setting [4]) was over 100000 nM.

A word on the IC50: it is the concentration that inhibits the measured activity by half. The Kb is the affinity of an antagonist, worked out from how it opposes an agonist. One may read the pKB as the negative decadic logarithm of the KB, by convention in mol/L. Lower therefore signals a large KB.
